Key:
Aurora A kinase = target: T1, Aurora A kinase (Homo sapiens, UniProt O14965); experiment: Assay for the inhibiting activity of kinase (Glo Plus / ADP Glo / Caliper), Aurora A; type: biochemical; conditions: kinase inhibition, incubated at 30° C. for 1 hour
T1 sequence (O14965 1-403): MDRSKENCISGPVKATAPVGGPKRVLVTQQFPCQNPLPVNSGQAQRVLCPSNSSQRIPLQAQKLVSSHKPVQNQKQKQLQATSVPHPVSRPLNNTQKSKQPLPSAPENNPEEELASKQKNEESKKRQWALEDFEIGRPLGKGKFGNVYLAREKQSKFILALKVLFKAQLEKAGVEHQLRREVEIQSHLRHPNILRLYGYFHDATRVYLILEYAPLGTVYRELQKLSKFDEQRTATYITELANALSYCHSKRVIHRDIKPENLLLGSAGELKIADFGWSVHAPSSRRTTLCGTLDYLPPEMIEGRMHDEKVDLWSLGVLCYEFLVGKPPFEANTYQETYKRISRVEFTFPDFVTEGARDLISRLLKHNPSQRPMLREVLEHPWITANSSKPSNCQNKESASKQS
Method: (§1) Experimental Reagents: a buffer solution of 25 mM HEPES, 10 mM MgCl2, 0.01% Triton X-100, 100 μg/mL BSA, 2.5 mM DTT, pH=7.4; ATP was available from U.S. Sigma (cat. A7699); Glo Plus Kinase Reagent was available from U.S. Promega (cat. V3773); ADP Glo Reagent was available from U.S. Promega (cat. V9102).
(§2) Procedures of the detection experiment for Glo Plus and ADP Glo kinases: the kinase(s), substrate, ATP and the compound(s) to be tested were mixed on a 384-well culture plate, with a total volume of 10 μL of the mixture, […], and then the culture plate was incubated at 30° C. for 1 hour. Test for Glo Plus kinase activity: add 10 μL of Glo Plus kinase per well to the mixture and then incubate at 27° C. for 20 minutes. Test for ADP Glo kinase activity: add 10 μL of ADP Glo per well to the culture plate, and then incubate at 27° C. for 40 minutes. Then a kinase detection reagent (10 μL per well) was added to the culture plate which was incubated at 27° C. for 30 minutes. Read the values from the plate reader to determine inhibition data.
(§3) Biologic testing procedures of Caliper kinase: the kinase, substrate, ATP and the compound to be tested were mixed in a 96-well culture plate, with a total volume of 50 μL of the mixture, and then the culture plate was incubated at 30° C. for 1 hour. Add 20 μL of 35 mM EDTA to the culture plate. A solution of 26 μL of the reaction mixture was transferred to a 384-well culture plate, and read the values on a plate reader to determine inhibition data.

Raf-1 kinase = Raf-1 kinase (Homo sapiens, UniProt P04049); experiment: Assay for the inhibiting activity of kinase (Glo Plus / ADP Glo / Caliper), Raf-1; type: biochemical; conditions: kinase inhibition, incubated at 30° C. for 1 hour
Sequence of Raf-1 kinase (P04049 whole entry): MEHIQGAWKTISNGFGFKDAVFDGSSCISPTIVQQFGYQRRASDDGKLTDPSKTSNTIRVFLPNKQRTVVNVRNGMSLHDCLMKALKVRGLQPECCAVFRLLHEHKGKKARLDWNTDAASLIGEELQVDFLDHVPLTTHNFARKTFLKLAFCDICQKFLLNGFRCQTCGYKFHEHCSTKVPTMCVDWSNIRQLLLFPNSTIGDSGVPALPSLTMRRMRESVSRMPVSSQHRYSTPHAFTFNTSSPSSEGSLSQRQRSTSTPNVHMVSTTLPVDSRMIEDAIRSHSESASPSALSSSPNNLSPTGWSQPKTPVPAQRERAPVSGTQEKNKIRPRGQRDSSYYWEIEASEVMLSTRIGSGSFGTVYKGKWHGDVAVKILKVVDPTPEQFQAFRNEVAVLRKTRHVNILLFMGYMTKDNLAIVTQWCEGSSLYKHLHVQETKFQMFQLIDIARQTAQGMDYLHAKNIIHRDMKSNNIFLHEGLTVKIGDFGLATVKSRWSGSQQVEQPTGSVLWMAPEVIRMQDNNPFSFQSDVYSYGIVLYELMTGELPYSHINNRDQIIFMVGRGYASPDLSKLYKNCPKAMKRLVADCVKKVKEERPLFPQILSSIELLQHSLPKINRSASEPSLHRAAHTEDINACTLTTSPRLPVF
Method: as §1, §2, §3

HepG2 = experiment: Test for activity of inhibiting tumor cells (CellTiter-Glo cell viability), HepG2; type: cell-based; conditions: Homo sapiens, half growth inhibition concentration, 72 hours incubation
Text: (§4) Reagents and consumables: 1. Tumor cells were available from HD Biosciences (Shanghai) Co., Ltd. and detected mycoplasma-free; 2. RPMI 1640 Culture Medium, available from U.S. Invitrogen, Code No.: 31800-022; 3. F12K Culture Medium, available from U.S. Invitrogen, Code No.: 21127-022; 4. DMEM Culture Medium, available from U.S. Invitrogen, Code No.: 12100-046; 5. Fetal bovine serum, available from U.S. Hyclone, Code No.: CH30160.03; 6. Penicillin-Streptomycin liquid, available from U.S. Invitrogen, Code No.: 15140-122; 7. Gemcitabine, available from U.K. Tocris, Code No.: 3259; 8. DMSO, available from U.S. Sigma, Code No.: D4540; 9. 96-well cell culture plate, available from U.S. Corning, Code No.: 3610; 10. CellTiter-Glo Luminescent Cell Viability Assay, available from U.S. Promega, Code No.: G7571; 11. Plate Reader, available from U.S. Perkin Elmer, EnVision Multilabel Plate Reader.
(§5) The cell culture mediums: 1. RPMI 1640 whole cell culture medium: a RPMI 1640 culture medium containing 10% fetal bovine serum and 100 U penicillin and 100 μg/mL streptomycin. 2. F12K whole cell culture medium: a F12K culture medium containing 10% fetal bovine serum and 100 U penicillin and 100 μg/mL streptomycin. 3. DMEM whole cell culture medium: a DMEM culture medium containing 10% fetal bovine serum and 100 U penicillin and 100 μg/mL streptomycin.
Preparation of the compounds: 1. A test compound was formulated into a mother liquor in a concentration of 30 mM, and the mother liquor was divided into aliquots and stored in a refrigerator at −80° C. 2. The mother liquors of the test compounds in a concentration of 30 mM were diluted with DMSO to a series of solutions in gradient concentrations, wherein these gradient concentrations included 25 mM, 5 mM, 1 mM, 200 μM, 40 μM, 8 μM, 1.6 μM, 0.32 μM. […]
(§6) Procedures: 1. […] The cell plate was placed into the plate reader for analysis. Set to read chemiluminescence and record the data.
(§7) Data Process: The data read in each well were required to be converted into cell viability. The cell viability could be calculated by using formulae. […]

A549 = experiment: Test for activity of inhibiting tumor cells (CellTiter-Glo cell viability), A549; type: cell-based; conditions: Homo sapiens, half growth inhibition concentration, 72 hours incubation
Text: as §4
The cell culture mediums: 1. RPMI 1640 whole cell culture medium: a RPMI 1640 culture medium containing 10% fetal bovine serum and 100 U penicillin and 100 μg/mL streptomycin. 2. […]
as §6, §7

K562 = experiment: Test for activity of inhibiting tumor cells (CellTiter-Glo cell viability), K562; type: cell-based; conditions: Homo sapiens, half growth inhibition concentration, 72 hours incubation
Text: as §4, §5
Preparation of the compounds: 1. A test compound was formulated into a mother liquor in a concentration of 30 mM, and the mother liquor was divided into aliquots and stored in a refrigerator at −80° C. 2. The mother liquors of the test compounds in a concentration of 30 mM were diluted with DMSO to a series of solutions in gradient concentrations, wherein these gradient concentrations included 25 mM, 5 mM, 1 mM, 200 μM, 40 μM, 8 μM, 1.6 μM, 0.32 μM. Then the formulated solutions in gradient concentrations were diluted five times with the whole cell culture mediums, and then the gradient concentrations of the test compounds included 5 mM, 1 mM, 200 μM, 40 μM, 8 μM, 1.6 μM, 0.32 μM, 0.064 μM dissolved in 20% DMSO. 3. Only before the experiments began, the prepared solutions of the test compounds in series of gradient concentrations were diluted one hundred times with the whole cell culture mediums under sterile conditions, wherein these gradient concentrations of the test compounds included 50 μM, 10 μM, 2 μM, 0.4 μM, 0.08 μM, 16 nM, 3.2 nM, 0.64 nM; which were 2× the compound solutions and they could be used to treat the cells. 4. […]
as §6, §7

**Q.** Cc1cc(Nc2ccnc(Nc3cc(NC(=O)Nc4ccc(Cl)c(C(F)(F)F)c4)ccc3C)n2)n[nH]1 [Compound 4, 1-(4-chloro-3-trifluoromethyl-phenyl)-3-{4-methyl-3-[4-(5-methyl-1H-pyrazol-3-yl-amino)-pyrimidin-2-yl-amino]-phenyl}-urea] was tested. Which IC50 (Aurora A kinase) did it give?
**A.** The IC50 was 2.68 µM.

**Q.** Cc1cc(Nc2nc(Nc3cc(NC(=O)Nc4ccc(Cl)c(C(F)(F)F)c4)ccc3C)ncc2O)n[nH]1 [Compound 11, 1-(4-chloro-3-trifluoromethyl-phenyl)-3-{3-[5-hydroxy-4-(5-methyl-1H-pyrazol-3-yl-amino)-pyrimidin-2-yl-amino]-4-methyl-phenyl}-urea] was tested. Which IC50 (Raf-1 kinase) did it give?
**A.** Its IC50 is 2.14 µM.

**Q.** Which results are given for COc1cnc(Nc2cc(NC(=O)Nc3ccc(Cl)c(C(F)(F)F)c3)ccc2C)nc1Nc1cc(C)[nH]n1 [Compound 9, 1-(4-chloro-3-trifluoromethyl-phenyl)-3-{3-[5-methoxy-4-(5-methyl-1H-pyrazol-3-yl-amino)-pyrimidin-2-yl-amino]-4-methyl-phenyl}-urea]?
**A.** EC50 (HepG2): 17.7 µM; EC50 (A549): 13.3 µM; IC50 (Raf-1 kinase): 0.24 µM; IC50 (Aurora A kinase): 0.34 µM; EC50 (K562): 4.8 µM

**Q.** Cc1cc(Nc2nc(Nc3cc(NC(=O)Nc4ccc(Cl)c(C(F)(F)F)c4)ccc3C)ncc2C)n[nH]1 [Compound 6, 1-(4-chloro-3-trifluoromethyl-phenyl)-3-{4-methyl-3-[5-methyl-4-(5-methyl-1H-pyrazol-3-yl-amino)-pyrimidin-2-yl-amino]-phenyl}-urea] was tested. Which EC50 (HepG2) did it give?
**A.** Its EC50 is 6.98 µM.

**Q.** What about the IC50 (Raf-1 kinase) of the same molecule?
**A.** Its IC50 is 0.25 µM.

**Q.** What about the IC50 (Aurora A kinase) of the same molecule?
**A.** Its IC50 is 0.14 µM.

**Q.** And the EC50 (K562)?
**A.** The EC50 was 4.87 µM.

**Q.** Cc1cc(Nc2nc(Nc3cc(NC(=O)Nc4ccc(Cl)c(C(F)(F)F)c4)ccc3C)ncc2N)n[nH]1 [Compound 8, 1-(4-chloro-3-trifluoromethyl-phenyl)-3-{4-methyl-3-[5-methyl-4-(5-methyl-1H-pyrazol-3-yl-amino)-5-amino-pyrimidin-2-yl-amino]-phenyl}-urea] was tested. Which IC50 (Raf-1 kinase) did it give?
**A.** The IC50 was 0.41 µM.

**Q.** And the IC50 (Aurora A kinase)?
**A.** Its IC50 is 2.1 µM.

**Q.** What about the EC50 (K562) of the same molecule?
**A.** The EC50 was 11.9 µM.

**Q.** With Cc1cc(Nc2nc(Nc3cc(NC(=O)Nc4ccc(Cl)c(C(F)(F)F)c4)ccc3C)ncc2C(F)(F)F)n[nH]1 [Compound 3, 1-(4-chloro-3-trifluoromethyl-phenyl)-3-{4-methyl-3-[4-(5-methyl-1H-pyrazol-3-yl-amino)-5-trifluoromethyl-pyrimidin-2-yl-amino]-phenyl}-urea] as the molecule, how does the IC50 (Raf-1 kinase) read?
**A.** Its IC50 is 1.53 µM.

**Q.** What does the source list for Cc1cc(Nc2nc(Nc3cc(NC(=O)Nc4ccc(Cl)c(C(F)(F)F)c4)ccc3C)ncc2F)n[nH]1 [Compound 2, 1-(4-chloro-3-trifluoromethyl-phenyl)-3-{3-[5-fluoro-4-(5-methyl-1H-pyrazol-3-yl-amino)-pyrimidin-2-yl-amino]-4-methyl-phenyl}-urea]?
**A.** EC50 (HepG2): 3.82 µM; IC50 (Raf-1 kinase): 0.38 µM; IC50 (Aurora A kinase): 0.78 µM; EC50 (K562): 4 µM

Source: patent US9221798B2, “4-substituted-(3-substituted-1H-pyrazole-5-amino)-pyrimidine derivatives having activity of inhibiting protein kinase and use thereof” (Zhejian Hisun Pharmaceutical Co., Ltd., priority 2011, dated 2015)
